From patent publication US20230332103A1, “Methods and Compositions for Generating Human Forebrain Neural Progenitor Cells and for Maturation Thereof to Parvalbumin+ Interneurons” (Trailhead Biosystems Inc., priority 2021, published 2023)
Several values for one entry are separate records, joined by “and”; a condition that tells them apart may be missing. Identical values can stand only once. Entries after “also recorded” stand apart in the source; their conditions may differ. Where no end group is shown, it is not given here.

Experiments:
Type in all cases: cell-based, human
[1] = tested on: stage 4 neural stem cells; experiment: HD-DoE 8-factor experiment for stage 5 recipe (Forskolin, Arachidonic acid, VPA, BDNF, BT13, O-LPA, GW7646, Sodium pyruvate), optimized for PVALB
Method: To further guide the differentiation of forebrain-committed neural stem cells to PVALB interneuron cells, an additional HD-DoE experiment was performed for 3 days on cells that were treated with stage 1 to stage 4 media for total of 12 days prior to start of the experiment. This experiment included 8 effectors, Forskolin, Arachidonic acid, VPA, BDNF, BT13, O-LPA, GW7646, and Sodium pyruvate. In this model, we focused on maximum expression of PVALB gene expressed in PVALB (+) interneurons (Nahar et al. (2021) Front. Psych. 12:679960). When the model was optimized for maximum expression of PVALB, Forskolin, GW7646, Sodium Pyruvate had the highest factor contributions, 3.14, 27.2, and 17.1 respectively (FIG. 25).
So, it was excluded in the recipe.

[2] = tested on: stage 4 neural stem cells; experiment: HD-DoE 8-factor experiment for stage 5 recipe (Prostratin, Rosiglitazone, GSI-XX, Heparin, GW0742, N2, THI0019, GDNF), optimized for PVALB; conditions: for impact on expression of PVALB: dynamic profile analysis, FIG. 24; for factor contribution on expression of PVALB: positive, model optimized for maximum expression of PVALB, FIG. 23
Method: To investigate effect of other factors on differentiation of forebrain-committed neural stem cells to PVALB interneuron cells, an additional HD-DoE experiment was performed for 3 days on cells that were treated with stage 1 to stage 4 media for total of 12 days prior to start of the experiment. This experiment included eight effectors, Prostratin, Rosiglitazone, GSI-XX, Heparin, GW0742, N2, THI0019, and GDNF. In this model, we focused on maximum expression of PVALB gene expressed in PVALB (+) interneurons (Nahar et al. (2021) Front. Psych. 12:679960). When model was optimized for maximum expression of PVALB, Prostratin, GW0742, N2, and GDNF had the highest factor contributions, 13.56, 19.499, 15.9 and 8.2 respectively (FIG. 23).
So, they were excluded in the recipe.

[3] = tested on: stage 2 neural stem cells (cells treated with stage 1 and stage 2 media); experiment: HD-DoE experiment for stage 3 recipe, optimized for ASCL1; conditions: for factor contribution on expression of ASCL1: positive, model optimized for maximum expression of ASCL1 at 1700, FIG. 9
Method: To further guide the cells to medial ganglionic eminence progenitor fate, an additional HD-DoE experiment was performed for 3 days on cells that were treated with stage 1 and stage 2 media for total of 6 days prior to start of the experiment. This experiment included 13 effectors, LDN193189, A8301, GNF5837, AZD3147, GSI-XX, Takinib, PD0325901, PD173074, BLU9931, IGF-1, MHY1485, Purmorphamine and Prostratin. In this model, we focused on maximum expression of genes expressed in neuronal progenitor cells in medial ganglionic eminence (MGE) region including ASCL1, LHX6 and DLX1 (Silberberg et al. (2016) Neuron 92:59-74). When the model was optimized for maximum expression of ASCL1 at 1700, A8301, GSI-XX, Purmorphamine and Takinib, which is an inhibitor of TAK1 pathway, had the highest factor contributions, 18.1, 14.1, 12.7 and 10.1 respectively. […]

MGE progenitor cells [4] = experiment: HD-DoE 12-factor experiment for stage 4 recipe, optimized for MEF2C; conditions: for impact on expression of MEF2C: dynamic profile analysis, FIG. 20
Description: These effectors are small molecules or proteins. They are commonly used during stepwise differentiation of stem cells to specific fates. The choice of the effectors was based on current literature on neural induction in forebrain region of developing brain and differentiation of stem cells to neural progenitors.
To evaluate the effectors, experiments with at least 8 factors were designed that can assess the response of cells to 48 or more different combinations of effectors in a range of concentrations. To analyze the models, we focused on expression of genes involved in development and patterning of the forebrain interneurons maturation including LHX6 (Yuan et al. (2018) Elife, 7:e37382), DLX5 (Wang et al. (2010) J. Neuroscience 30:5334-5345), ASCL1 (Shi et al. (2016) J. Biol. Chem. 291:13560-13570). At later stages we focused on interneuron maturation genes including Parvalbumin and absence of somatostatin (Horn and Nicoll (2018) Proc. Natl. Acad. Sci. 115:589-594). The impacts of each effector on gene expression level are defined by a parameter called factor contribution that is calculated for each effector during the modeling.
To identify the recipe of stage 4 of differentiation, 48 different combinations of effectors generated using Design-of-Experiments compression through D-optimality were robotically prepared. The effector combinations were prepared in a basal media and were subsequently added to the cells, which were then allowed to differentiate. Three days later RNA extraction was performed, and gene expression was obtained using quantitative PCR analysis. The data was normalized and modeled using partial least squares regression analysis to the effector design, resulting in the generation of gene-specific models, which after model tuning for maximal predictive power, provided explanation of the effectors ability to control the expression of individual genes, combinatorically, and individually. Solutions within the tested space could then be explored to address desirability. […] Valproic Acid can inhibit histone deaceylases and increase γ-aminobutyric acid (GABA). […] GDNF is the […] Glial cell line-derived neurotrophic factor and can activate the GDNF pathway.
To find the set of factors that have the potential to optimize MEF2C in this experiment, a new assessment was done through dynamic profile analysis with focus on maximal expression of MEF2C (FIG. 20).

[5] = tested on: forebrain-committed neural stem cells (stage 1 neural stem cells); experiment: HD-DoE 12-factor experiment for stage 2 recipe, optimized for NKX2-1; conditions: model maximized for NKX2-1 / dynamic profile, FIG. 7 and 8
Method: To further guide the differentiation of forebrain-committed neural stem cells to ventral forebrain neural stem cells at stage 2, a HD-DoE experiment was performed for 3 days after termination of stage 1 treatment. At this time, we focused on maximum expression of NKX2-1 that is expressed in ventral forebrain region and minimum expression of PAX6 that is expressed in dorsal forebrain region. This 12-factor experiment included LDN193189, BMP7, PD0325901, MK2206, A8301, XAV939, CHIR99021, Purmorphamine, SANT-1, AGN193109, TTNPB and GSI-XX.

[6] = tested on: stage 2 neural stem cells; experiment: factor criticality analysis (dynamic profile analysis) of stage 3 recipe; set-up: unit not given here; conditions: other five factors present; for expression level of DLX1 when the effector is removed: 220 with all six factors; for expression level of LHX6 when the effector is removed: 240 with all six factors; for expression level of ASCL1 when the effector is removed: 1650 with all six factors
Method: To assess the impact of the elimination of each validated factor, dynamic profile analysis was used and compared the expression level of genes of interest in absence of each finalized factor while others are present. […] In the stage 3 recipe, each of the six finalized factors were removed while the other five factors remained present and the expression levels of ASCL1, DLX1 and LHX6 were assessed compared to the presence of all six factors. […] As expected, in the absence of IGF-1, the value of DLX1 increases to 410, however, ASCL1 and LHX6 decreased to 1390 and 220, respectively.

MGE progenitor cells [7] = experiment: factor criticality analysis of stage 4 recipe; conditions: FIG. 27
Method: (§1) To assess the impact of elimination of each validated factor, we again used dynamic profile analysis and compared the expression level of genes of interest in the absence of each finalized factor while others are present.
In the stage 4 recipe, each of five finalized factors were removed while the other four factors were present and expression levels of forebrain genes were assessed compared to the presence of all 5 factors. MEF2C was reported to determine the PVALB-precursors cell fate (Mayer et al. (2018) Nature 555:457-462). We optimize MEF2C expression at this stage. […] (FIG. 27).

[8] = tested on: stage 4 neural stem cells; experiment: factor criticality analysis of stage 5 recipe
Method: as §1
In the stage 5 recipe, each of seven finalized factors were removed while other factors were kept present and expression levels of PVALB and SST were assessed compared to the presence of all seven factors. […] 2-phospho-L-ascorbic acid, BDNF, IGF-1 were included in the stage 5 recipe (FIG. 28). […] Others were also found to increase the expression of somatostatin that was SST interneuron marker. So, they are excluded from the recipe and N2 was included in the stage 5 recipe (FIG. 29). […] Sodium pyruvate was included in the stage 5 recipe (FIG. 30).

[9] = tested on: cells after termination of stage 4 treatment; experiment: HD-DoE 8-factor experiment for stage 5 recipe (JQ1, Indolactam-V, Oleic acid, BDNF, IGF-1, 2-phospho-L-Ascorbic acid, Albumax, MK2206), optimized for PVALB
Description: To further guide the differentiation of forebrain-committed neural stem cells to PVALB interneuron cells at stage 5, we performed a HD-DoE experiment for 3 days after termination of stage 4 treatment. At this time, we focused on maximum expression of PVALB that was expressed in Parvalbumin (+) interneurons and minimum expression of Somatostatin that is another type of interneurons. This 8-factor experiment included JQ1, Indolactam-V, Oleic acid, BDNF, IGF-1, 2-phospho-L-Ascorbic acid, Albumax, MK2206. […] Using dynamic profile analysis, we modified the model to achieve the maximum expression level of PVALB simultaneously and therefore 2-phospho-L-ascorbic acid, BDNF, IGF1 were included while MK2206, Albumax, and JQ1 are excluded (FIG. 22). Considering the model at different optimization settings for maximum differentiation of cells toward ventral forebrain, the recipe for stage 5 of differentiation included BDNF, IGF-1, 2-phospho-L-ascorbic acid from this HD-Doe experiment.

[10] = dynamic profile analysis, FIG. 10
[11] = positive impact, model optimized for maximal expression of MEF2C at 453, FIG. 19

## CCN(CC)S(=O)(=O)c1ccc(OC)c(N2CCN(C(=O)c3ccc(F)cc3C(F)(F)F)CC2)c1 [BT13]
[1]; dynamic profile analysis, FIG. 26
  impact on expression of PVALB: significant negative impact

## C=C[C@@]1(C)CC(=O)[C@]2(O)[C@@]3(C)[C@@H](O)CCC(C)(C)[C@@H]3[C@H](O)[C@H](OC(C)=O)[C@@]2(C)O1 [Forskolin]
[1]; positive, model optimized for maximum expression of PVALB, FIG. 25
  factor contribution on expression of PVALB: 3.14

## C[C@H](NC(=O)Cc1cc(F)cc(F)c1)C(=O)N[C@@H]1C(=O)N(C)c2ccccc2-c2ccccc21 [GSI-XX]
[2]
  impact on expression of PVALB: negative impact
[3]; [10]
  impact on expression of ASCL1: Positive impact
  impact on expression of LHX6: Positive impact
[3]
  factor contribution on expression of ASCL1: 14.1 and 14
MGE progenitor cells [4]
  impact on expression of MEF2C: negative effect
MGE progenitor cells [4]; significant negative effect, model optimized for maximal expression of MEF2C
  factor contribution on expression of MEF2C: 11.6
[5]
  impact on expression of NKX2-1: increase its expression level
[6]
  expression level of DLX1 when the effector is removed: 50
  expression level of LHX6 when the effector is removed: 140
  expression level of ASCL1 when the effector is removed: 1200

## Cc1cc(SCc2sc(-c3ccc(C(F)(F)F)c(F)c3)nc2C)ccc1OCC(=O)O [GW0742]
[2]
  factor contribution on expression of PVALB: 19.499

## O=[N+]([O-])c1ccc(Nc2nc(N3CCOCC3)nc(N3CCOCC3)n2)cc1 [MHY1458]
MGE progenitor cells [7]
  effect on PVALB expression: increase PVALB expression
[3]
  factor contribution on expression of ASCL1: below 2
MGE progenitor cells [4]; [11]
  factor contribution on expression of MEF2C: 0.04

## CC(=O)O[C@@]12C[C@@H](C)[C@@]3(O)[C@@H](C=C(CO)C[C@]4(O)C(=O)C(C)=C[C@@H]34)[C@@H]1C2(C)C [Prostratin]
[2]
  factor contribution on expression of PVALB: 13.56

## CCCC[C@@H](COC(=O)N(Cc1cccs1)Cc1cccs1)NC(=O)N[C@@H](CC(=O)OC)c1ccc2c(c1)OCO2 [THI0019]
[2]
  impact on expression of PVALB: negative impact

## CCCC(CCC)C(=O)O [Valproic Acid, Valproic acid]
MGE progenitor cells [7]
  effect on PVALB expression: contribute to PVALB expression
  effect on somatostatin expression: minimal increase
MGE progenitor cells [4]
  impact on expression of MEF2C: positive impact
MGE progenitor cells [4]; [11]
  factor contribution on expression of MEF2C: 12

## Heparin
[2]
  impact on expression of PVALB: negative impact

## IGF-1: insulin-like growth factor 1, growth factor, IGF1 pathway agonist
[8]; FIG. 28
  effect on expression of somatostatin: did not change
[8]; FIG. 28-30
  contribution to expression of PVALB (Parvalbumin): positive contribution
[9]; important input for maximum expression of PVALB, FIG. 21
  factor contribution on expression of PVALB: 12.8
[9]; model maximized for PVALB / dynamic profile, FIG. 21 and 22
  impact on expression of PVALB: increase its expression level; also recorded: positive impact
[3]; [10]
  impact on expression of ASCL1: positive effect
  impact on expression of DLX1: negative impact
  impact on expression of LHX6: positive effect
[3]
  factor contribution on expression of ASCL1: 7
MGE progenitor cells [4]
  impact on expression of MEF2C: negative impact
[6]
  expression level of DLX1 when the effector is removed: 410
  expression level of LHX6 when the effector is removed: 220
  expression level of ASCL1 when the effector is removed: 1390

## Substance P: 11 amino acid neuropeptide, member of the tachykinin neuropeptide family (RPKPQQFFGLM; ends and bridges not checked; UniProt P20366 58-68, looked up)
MGE progenitor cells [7]
  effect on MEF2C expression: increase
  effect on somatostatin expression: decrease
MGE progenitor cells [4]
  impact on expression of MEF2C: positive impact
MGE progenitor cells [4]; [11]
  factor contribution on expression of MEF2C: 9

B1: GDNF: Glial cell line-derived neurotrophic factor, activates the GDNF pathway (protein, UniProt P39905 78-211, looked up)
Glial cell line-derived …: SPDKQMAVLPRRERNRQAAAANPENSRGKGRRGQRGKNRGCVLTAIHLNVTDLGLGYETKEELIFRYCSGSCDAAETTYDKILKNLSRNRRLVSDKVGQACCRPIAFDDDLSFLDDNLVYHILRKHSAKRCGCI
[2]
  factor contribution on expression of PVALB: 8.2
MGE progenitor cells [7]
  effect on PVALB expression: contribute to PVALB expression
  effect on somatostatin expression: minimal increase
MGE progenitor cells [4]
  impact on expression of MEF2C: positive impact
MGE progenitor cells [4]; [11]
  factor contribution on expression of MEF2C: 5
